PubChem BioAssay (NCI)
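Briefly, cells in 96-well plates were exposed to five compound concentrations for 48 h, and endpoints were estimated by linear interpolation. TGI denotes the concentration required for complete inhibition of growth.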

Experiments:
Experiment in all cases: DTP human tumour cell line panel, 48 h
ACHN renal = tested on: ACHN renal
IGROV1 ovarian = tested on: IGROV1 ovarian
KM12 colon = tested on: KM12 colon
NCI-H226 lung = tested on: NCI-H226 lung
PC-3 prostate = tested on: PC-3 prostate
SF-268 CNS = tested on: SF-268 CNS
SK-MEL-2 melanoma = tested on: SK-MEL-2 melanoma
SNB-75 CNS = tested on: SNB-75 CNS
SR leukemia = tested on: SR leukemia
U251 CNS = tested on: U251 CNS
UACC-62 melanoma = tested on: UACC-62 melanoma

Compound	TGI (ACHN renal) [µM]	TGI (IGROV1 ovarian) [µM]	TGI (KM12 colon) [µM]	TGI (NCI-H226 lung) [µM]	TGI (PC-3 prostate) [µM]	TGI (SF-268 CNS) [µM]	TGI (SK-MEL-2 melanoma) [µM]	TGI (SNB-75 CNS) [µM]	TGI (SR leukemia) [µM]	TGI (U251 CNS) [µM]	TGI (UACC-62 melanoma) [µM]
O=C(/C=C/c1cccs1)c1ccc(Cl)s1	> 100	> 10	44.3	85.1	> 100	> 100	> 100	> 100	63.2	> 100	> 100
CC(=O)O[C@H]1CC[C@@]2(C)C(=CC[C@H]3[C@@H]4C/C(=C\c5ccncc5)[C@H](OC(C)=O)[C@@]4(C)CC[C@@H]32)C1	33.6	27.7	16.3	34.6	46.8	25.8	33.3	23.8	9.19	23.1	26.5
COc1cc2c(cc1O)-c1c(OC)c(O)cc3c1C(C2)N(C)CC3 (stereo unspecified)	> 100	> 100	> 100	> 100	> 100	> 100	> 100	> 100	> 100	> 100	> 100
CCN(CC)CCNc1ccc2ncn3c4c(OC)ccc(=O)c4c(O)c1c23	> 100	> 43.8	> 100	> 100	> 100	> 95.2	> 100	> 100	> 31.6	> 100	> 100
O=C1CSC(c2ccccc2[N+](=O)[O-])N1c1ccc(-n2c(-c3ccccc3)nc3ccccc3c2=O)cc1 (stereo unspecified)	> 100	> 100	> 100	89.2	> 100	> 100	> 100	34.9	> 100	32.7	> 100
Cc1ccc(C(=O)c2[nH]c(Nc3ccc(Cl)cc3)c(C(=S)Nc3ccccc3)c2N)cc1	10.7	15	18.8	43.4	23.3	23.3	31.7	7.14	10.7	9.02	28.1
Cc1cn(CCCCOC(=O)NC(CCCNC(N)=O)C(=O)O)c(=O)[nH]c1=O (stereo unspecified)	> 100	> 100	> 100	> 100	> 100	> 100	> 100	> 100	> 100	> 100	> 100
N#Cc1nc(NC(=O)c2ccccc2)sc1N	> 10	> 10	> 10	> 10	> 10	> 10	> 10	> 10	> 10	> 10	> 10
CCOC(=O)c1nc2cc(C(F)(F)F)ccc2nc1Oc1ccc(C(=O)OC)cc1	> 100	> 100	> 100	> 100	> 100	> 100	> 100	> 100	> 100	> 100	> 100
CC(=O)[C@]1(C)[C@H](C)O[C@](C)(CO)[C@H]1O[Si](C)(C)c1ccccc1	> 100	41.4	> 100	> 100	> 100	> 100	> 100	> 100	> 100	> 100	> 100
CC(=O)OC(C#N)CC(C)(C)/[N+]([O-])=[N+](\[O-])C(C)(C)CC(C#N)OC(C)=O (stereo unspecified)	24.5	24	28.9	55.3	37.9	42.2	> 100	63.8	48.3	39.5	32.2
Cc1ccc(Nc2cc(=O)[nH]c(=O)[nH]2)cc1CS	> 100	> 100	> 100	> 100	> 100	> 100	> 100	> 100	> 100	> 100	> 100
Cc1n(-c2ccccc2)c2c([n+]1Cc1ccc([N+](=O)[O-])cc1)C(=O)c1ccccc1C2=O	13.9	2.23	6.54	15.1	7.25	3.71	2.97	13.1	4.9	3.35	3.74
COC(=O)c1cn(CCCCO)nn1	> 100	> 100	> 100	> 100	> 100	> 100	> 100	> 100	> 100	> 100	> 100
Cc1ccc(N=Nc2c(C)nn(C(=O)CC(=O)Nc3ccc(Cl)cc3)c2C)cc1C	> 100	> 100	> 100	> 100	> 100	> 100	> 100	48.7	39.7	> 100	> 100
Cc1nc2ccc(S(=O)(=O)Nc3ccccc3Cl)cc2c(=O)n1NC(=O)CNc1ccccc1Cl	> 100	> 100	> 100	> 100	> 100	> 100	> 100	> 100	> 100	> 100	> 100
